Experimental data reported in patent US12172986B2, “Splicing modulator antibody-drug conjugates and methods of use” (EISAI R&D MANAGEMENT CO., LTD., priority 2018, dated 2024).

Assays:
[1] = system: Ad2.2 pre-mRNA splicing; experiment: In vitro splicing (IVS) RT-qPCR, Ad2.2 pre-mRNA, HeLa nuclear extract; assay type: biochemical; conditions: payload of the ADC; read-out: qPCR-IVS-AT S GMean IC50 (nM) Ad2.2 HELA.2
Description: To evaluate payload activity in a cell-free system, an in vitro splicing assay was performed. The payloads were incubated with nuclear extracts and pre-mRNA substrate minigenes.
HeLa nuclear extract preparation: HeLa S3 cell pellets were resuspended in hypotonic buffer (10 mM HEPES pH 7.9, 1.5 mM MgCl2, 10 mM KCl, 0.2 mM PMSF, 0.5 mM DTT) and the suspension was brought up to a total of 5 packed cell volume (PCV). After centrifugation, the supernatant was discarded, and the cells were brought up to 3 PCV with hypotonic buffer and incubated on ice for 10 min. Cells were lysed using a dounce homogenizer and then centrifuged. […]. The nuclei were gently mixed for 30 min before centrifuging. The supernatant (nuclear extract) was then dialyzed into storage buffer (20 mM HEPES pH 7.9, 100 mM KCl, 0.2 mM EDTA, 20% glycerol, 0.2 mM PMSF, 0.5 mM DTT). Protein concentration was determined using NanoDrop 8000 UV-Vis spectrophotometer (ThermoFisher Scientific).
IVS: All Ad2-derived sequences (Pellizzoni et al. (1998) Cell 95(5):615-24) were cloned into pcDNA3.1(+) vector (Promega) using 5′ EcoRI and 3′ Xbal restriction sites. The plasmids were linearized using Xbal and used as DNA templates in in vitro transcription reactions. The FtzΔi intron-less plasmid (Luo and Reed (1999) 96(26):14937-42) was linearized using EcoRI. All RNAs were in vitro transcribed and then purified using MEGAScript T7 (Invitrogen) and MegaClear (Invitrogen) kits, respectively. For splicing reactions using Ad2 variant pre-mRNAs, 1 μL reactions were prepared using 8 μg nuclear extracts prepared from HeLa S3, 2 ng pre-mRNA, 0.2 ng FTZΔi, and varying concentrations of compounds or DMSO. After a 15 min pre-incubation at 30° C., 1 μL splicing activation buffer (0.5 mM ATP, 20 mM creatine phosphate, 1.6 mM MgCl2) was added, and the reactions were incubated for 90 min at 30° C. The reactions were then quenched with 13 μL DMSO, and 25 nL was used for RT-qPCR. RT-qPCR reactions were prepared using TaqMan RNA-to-CT 1-step kit (Life Technologies), RNA from splicing reactions, Ad2 (forward: […]; reverse: […]; probe: […]) and Ftz (forward: […]; reverse: […]; probe: […]) mRNA primer-probe sets. Prism 7 (Graphpad) was used for non-linear regression curve fitting of the formed spliced product and normalized to the control (DMSO) sample. […] In the presence of payload, a decrease in the amount of spliced product was observed.

[2] = Caco-2 permeability of ADC payload; assay type: in vitro ADME; conditions: human, Caco-2, payload; for efflux ratio at 2 h, 10 μM: B-A/A-B, read-out: Eflux ratio
Description: (§1) Integrity of cell monolayer was confirmed by TEER (transepithelial electrical resistance) and Lucifer yellow. Payloads were spiked in duplicate at 10 μM, separately, on both sides of the cell monolayer. Permeability rates from the apical to basolateral (A-B) direction and the basolateral to apical (B-A) direction were determined by sampling aliquots from both chambers immediately after treatment (t=0) and following incubation for 2 hours. Samples were protein precipitated with organic solvent containing internal standard and analyzed by LC-MS/MS (SCIEX; API 5500). The area ratio responses of payload/internal standard over time in both directions were used to generate permeability (cm/see) values. Efflux ratio was calculated by dividing B-A/A-B. Control compounds for low and high permeability and efflux behaved as expected.

[3] = system: Caco-2 cells; experiment: Caco-2 permeability of ADC payload; assay type: in vitro ADME; conditions: for Perm. Mean Caco-2 A-B Perm (10e-6 cm/s) / Perm. Mean Caco-2 B-A Perm (10e-6 cm/s): corresponding free payload of the ADC
Description: as §1

[4] = system: HCC1954 cells; experiment: Cell viability CellTiter-Glo, HCC1954; assay type: cell-based; conditions: unconjugated payload of the ADC
Description: (§2) HCC1954 (American Type Culture Collection (ATCC)) breast ductal carcinoma cells were plated at 2000 cells/well in flat bottom 96-well tissue culture plates (Corning) in a total volume of 90 μL tissue culture medium supplemented with 10% fetal bovine serum (ThermoFisher Scientific). Cells were treated with a 3-fold serial dilution of compound from 200 nM to 0.03 nM. Each concentration was tested in triplicate. At the time of treatment, a plate of untreated cells was evaluated using CellTiter-Glo®2.0 Luminescent Cell Viability Assay according to the manufacturer's recommendations (Promega; #G9241). CellTiter-Glo® 2.0 reagent was added to the medium, incubated, and assayed on an EnVision Multilabel Reader (PerkinElmer). Values represent time zero (TO). […] Percentage growth inhibition was calculated as: [(T144-T0)/(C-TO)]×100 for concentrations for which T144>/=TO or [(T144-T0)/T0]×100 for concentrations for which T144<TO. The dose response curve plots were generated using Prism 7 (Graphpad) and fit using nonlinear regression analysis and the log(inhibitor) versus response-variable slope (four parameters).
(§3) HCC1954 (ATCC), 2000 cells/well), N87 (ATCC, 4000 cells/well), SKBR3 (ATCC, 3000 cells/well), and MCF7 (ATCC, 1500 cells/well) cell lines were used.

[5] = system: PC3 cells; experiment: Cell viability, EPHA2-expressing PC3; assay type: cell-based; conditions: for Payload LD50: corresponding payload alone; for GI50: Homo sapiens, PC-3, corresponding payload alone
Description: as §2

[6] = system: N87 cells; experiment: Cell viability CellTiter-Glo, N87; assay type: cell-based, human; conditions: unconjugated payload of the ADC
Description: as §2, §3

[7] = system: THP1.1; experiment: Payload cell potency and lethality CTGlo 72 h, THP1.1; assay type: cell-based; conditions: for CTGlo-AT S GMean LD50 (nM) 72 h THP1.1: payload; for GI50: read-out: CTGlo-AT S GMean GI50 (nM) Ad2.2 HELA.2
[8] = system: MCF7 cells; experiment: Cell viability CellTiter-Glo, HER2-negative MCF7; conditions: unconjugated payload of the ADC
Description: HCC1954 (American Type Culture Collection (ATCC)) breast ductal carcinoma cells were plated at 2000 cells/well in flat bottom 96-well tissue culture plates (Corning) in a total volume of 90 μL tissue culture medium supplemented with 10% fetal bovine serum (ThermoFisher Scientific). Cells were treated with a 3-fold serial dilution of compound from 200 nM to 0.03 nM. Each concentration was tested in triplicate. At the time of treatment, a plate of untreated cells was evaluated using CellTiter-Glo®2.0 Luminescent Cell Viability Assay according to the manufacturer's recommendations (Promega; #G9241). CellTiter-Glo® 2.0 reagent was added to the medium, incubated, and assayed on an EnVision Multilabel Reader (PerkinElmer). Values represent time zero (TO). […] Using the luminescence value at time zero (TO), DMSO control growth (C), and test growth in the presence of compound (T144), the percentage growth was calculated at each of the compound concentrations levels. Percentage growth inhibition was calculated as: [(T144-T0)/(C-TO)]×100 for concentrations for which T144>/=TO or [(T144-T0)/T0]×100 for concentrations for which T144<TO. The dose response curve plots were generated using Prism 7 (Graphpad) and fit using nonlinear regression analysis and the log(inhibitor) versus response-variable slope (four parameters).
as §3

[9] = system: Ad2.1 pre-mRNA splicing; experiment: In vitro splicing (IVS) RT-qPCR, Ad2.1 pre-mRNA, HeLa nuclear extract; assay type: biochemical; conditions: payload of the ADC; read-out: qPCR-IVS-AT S Gmean IC50 (nm) Ad2.1 HELA.2
Description: HeLa nuclear extract preparation: HeLa S3 cell pellets were resuspended in hypotonic buffer (10 mM HEPES pH 7.9, 1.5 mM MgCl2, 10 mM KCl, 0.2 mM PMSF, 0.5 mM DTT) and the suspension was brought up to a total of 5 packed cell volume (PCV). After centrifugation, the supernatant was discarded, and the cells were brought up to 3 PCV with hypotonic buffer and incubated on ice for 10 min. Cells were lysed using a dounce homogenizer and then centrifuged. […] The nuclei were gently mixed for 30 min before centrifuging. The supernatant (nuclear extract) was then dialyzed into storage buffer (20 mM HEPES pH 7.9, 100 mM KCl, 0.2 mM EDTA, 20% glycerol, 0.2 mM PMSF, 0.5 mM DTT). Protein concentration was determined using NanoDrop 8000 UV-Vis spectrophotometer (ThermoFisher Scientific).
IVS: All Ad2-derived sequences (Pellizzoni et al. (1998) Cell 95(5):615-24) were cloned into pcDNA3.1(+) vector (Promega) using 5′ EcoRI and 3′ Xbal restriction sites. The plasmids were linearized using Xbal and used as DNA templates in in vitro transcription reactions. The FtzΔi intron-less plasmid (Luo and Reed (1999) 96(26):14937-42) was linearized using EcoRI. All RNAs were in vitro transcribed and then purified using MEGAScript T7 (Invitrogen) and MegaClear (Invitrogen) kits, respectively. For splicing reactions using Ad2 variant pre-mRNAs, 1 μL reactions were prepared using 8 μg nuclear extracts prepared from HeLa S3, 2 ng pre-mRNA, 0.2 ng FTZΔi, and varying concentrations of compounds or DMSO. After a 15 min pre-incubation at 30° C., 1 μL splicing activation buffer (0.5 mM ATP, 20 mM creatine phosphate, 1.6 mM MgCl2) was added, and the reactions were incubated for 90 min at 30° C. The reactions were then quenched with 13 μL DMSO, and 25 nL was used for RT-qPCR. RT-qPCR reactions were prepared using TaqMan RNA-to-CT 1-step kit (Life Technologies), RNA from splicing reactions, Ad2 (forward: [sequence]; reverse: [sequence]; probe: [sequence]) and Ftz (forward: [sequence]; reverse: [sequence]; probe: [sequence]) mRNA primer-probe sets. Prism 7 (Graphpad) was used for non-linear regression curve fitting of the formed spliced product and normalized to the control (DMSO) sample.

| Structure (SMILES) | IC50 [1] [nM] | efflux ratio at 2 h, 10 μM [2] | CTGlo-AT S GMean LD50 (nM) 72 h THP1.1 [7] [nM] | IC50 [9] [nM] | further results |
| --- | --- | --- | --- | --- | --- |
| CC[C@H](O)[C@@H](C)[C@H]1O[C@@H]1C[C@@](C)(O)/C=C/C=C(\C)[C@H]1OC(=O)C[C@H](O)CC[C@@](C)(OC(=O)N2CCNCC2)[C@@H](OC(C)=O)/C=C/[C@@H]1C [D8, (2S,3S,6S,7R,10R,E)-6-acetoxy-10-hydroxy-2-((R,2E,4E)-6-hydroxy-7-((2R,3R)-3-((2R,3S)-3-hydroxypentan-2-yl)oxiran-2-yl)-6-methylhepta-2,4-dien-2-yl)-3,7-dimethyl-12-oxooxacyclododec-4-en-7-yl piperazine-1-carboxylate] | 9.03 | 15.9 | 38.969 | 11.4 | Perm. Mean Caco-2 A-B Perm (10e-6 cm/s) [3]: 0.128 10e-6 cm/s; Perm. Mean Caco-2 B-A Perm (10e-6 cm/s) [3]: 2.027 10e-6 cm/s; Payload LD50 [4]: 11.175 nM; Payload Rmin (%) [4]: −80.463%; Payload LD50 [5]: 177.783 nM; Payload LD50 [6]: >200 nM; Payload LD50 [8]: 181.521 nM; Payload Rmin (%) [8]: −62.957% |
| CC[C@H](O)[C@@H](C)[C@H]1O[C@@H]1C[C@H](C)/C=C/C=C(\C)[C@H]1OC(=O)C[C@H](O)CC[C@@](C)(OC(C)=O)[C@@H](OC(=O)N2CCNCC2)/C=C/[C@@H]1C [D9] | 18.1 | 14 | 3.56 | 20.2 | – |
| CC[C@H](O)[C@@H](C)[C@H]1O[C@@H]1C[C@@](C)(O)/C=C/C=C(\C)[C@H]1OC(=O)C[C@H](O)CC[C@@](C)(O)[C@@H](OC(=O)N2CCN(C3CCCCCC3)CC2)/C=C/[C@@H]1C [D11, E7107] | 9.36 | – | 8.086 | 10.5 | GI50 [7]: 1.35 nM |
| CC[C@H](O)[C@@H](C)[C@H]1O[C@@H]1C[C@@](C)(O)/C=C/C=C(\C)[C@H]1OC(=O)C[C@H](O)CC[C@@](C)(O)[C@@H](OC(=O)N2CCNCC2)/C=C/[C@@H]1C [D12, (2S,3S,6S,7R,10R,E)-7,10-dihydroxy-2-((R,2E,4E)-6-hydroxy-7-((2R,3R)-3-((2R,3S)-3-hydroxypentan-2-yl)oxiran-2-yl)-6-methylhepta-2,4-dien-2-yl)-3,7-dimethyl-12-oxooxacyclododec-4-en-6-yl piperazine-1-carboxylate] | – | – | – | – | Perm. Mean Caco-2 A-B Perm (10e-6 cm/s) [3]: 0.17 10e-6 cm/s; Perm. Mean Caco-2 B-A Perm (10e-6 cm/s) [3]: 0.23 10e-6 cm/s; efflux ratio (in words) ([3]; payload): low efflux ratio |
| CC[C@H](O)[C@@H](C)[C@H]1O[C@@H]1C[C@H](C)/C=C/C=C(\C)[C@H]1OC(=O)C[C@H](O)CC[C@@](C)(OC(=O)N2CCNCC2)[C@@H](OC(C)=O)/C=C/[C@@H]1C [D13] | 8.82 | 19.1 | 3.358 | 11.3 | – |
| CC[C@H](O)[C@@H](C)[C@H]1O[C@@H]1C[C@H](C)/C=C/C=C(\C)[C@H]1OC(=O)C[C@H](O)CC[C@@](C)(OC)[C@@H](OC(=O)N2CCNCC2)/C=C/[C@@H]1C [D18, (2S,3S,6S,7R,10R,E)-10-hydroxy-2-((S,2E,4E)-7-((2R,3R)-3-((2R,3S)-3-hydroxypentan-2-yl)oxiran-2-yl)-6-methylhepta-2,4-dien-2-yl)-7-methoxy-3,7-dimethyl-12-oxooxacyclododec-4-en-6-yl piperazine-1-carboxylate] | 12.7 | – | 4.355 | 12.7 | Payload LD50 [4]: 0.787 nM; Payload Rmin (%) [4]: −90.055%; GI50 [5]: 1.41 nM; Payload LD50 [5]: >400 nM; Payload LD50 [6]: 2.993 nM; Payload LD50 [8]: 7.697 nM; Payload Rmin (%) [8]: −68.226% |
| CC[C@H](O)[C@@H](C)[C@H]1O[C@@H]1C[C@@](C)(O)/C=C/C=C(\C)[C@H]1OC(=O)C[C@H](O)CC[C@@](C)(OC)[C@@H](OC(=O)N(C)CCNC)/C=C/[C@@H]1C [D20, (2S,3S,6S,7R,10R,E)-10-hydroxy-2-((R,2E,4E)-6-hydroxy-7-((2R,3R)-3-((2R,3S)-3-hydroxypentan-2-yl)oxiran-2-yl)-6-methylhepta-2,4-dien-2-yl)-7-methoxy-3,7-dimethyl-12-oxooxacyclododec-4-en-6-yl methyl(2-(methylamino)ethyl)carbamate] | 8.75 | – | 113.557 | 10.9 | – |
| CC[C@H](O)[C@@H](C)[C@H]1O[C@@H]1C[C@@](C)(O)/C=C/C=C(\C)[C@H]1OC(=O)C[C@H](O)CC[C@@](C)(OC)[C@@H](OC(=O)N2CCNC(CCC(=O)O)C2)/C=C/[C@@H]1C (stereo partly drawn) [D22, 3-(4-((((2S,3S,6S,7R,10R,E)-10-hydroxy-2-((R,2E,4E)-6-hydroxy-7-((2R,3R)-3-((2R,3S)-3-hydroxypentan-2-yl)oxiran-2-yl)-6-methylhepta-2,4-dien-2-yl)-7-methoxy-3,7-dimethyl-12-oxooxacyclododec-4-en-6-yl)oxy)carbonyl)piperazin-2-yl)propanoic acid] | 49.1 | – | 1594.636 | 66.3 | Papp B→A at 2 h, 10 μM ([2]; 10 μM, 2 hours, basolateral to apical, read-out: Permeability Mean Caco-2 B-A Perm (10e-Gcm/s)): 0.18 ×10⁻⁶ cm/s |
| C/C(=C\c1cc(F)cc(N2CCN(C(=O)Cn3cccn3)CC2)c1)[C@H]1OC(=O)C[C@H](O)CC[C@H](C)[C@@H](OC(=O)N2CCN(C)CC2)/C=C/[C@@H]1C [D26] | 14.3 | 2.58 | 28.483 | 18.8 | – |
| C/C(=C\c1cc(F)cc(N2CCN(S(=O)(=O)c3cnn(C)c3)CC2)c1)[C@H]1OC(=O)C[C@H](O)CC[C@H](C)[C@@H](OC(=O)N2CCNCC2)/C=C/[C@@H]1C [D28] | – | – | – | – | GI50 [5]: > 400 nM; Payload LD50 [5]: >400 nM |
| C/C(=C\c1cc(F)cc(N2CCN(CC(=O)O)CC2)c1)[C@H]1OC(=O)C[C@H](O)CC[C@H](C)[C@@H](OC(=O)N2CCNCC2)/C=C/[C@@H]1C [D33, 2-(4-(3-fluoro-5-((E)-2-((2S,3S,6R,7S,10R,E)-10-hydroxy-3,7-dimethyl-12-oxo-6-((piperazine-1-carbonyl)oxy)oxacyclododec-4-en-2-yl)prop-1-en-1-yl)phenyl)piperazin-1-yl)acetic acid] | 72.4 | – | 5202.992 | 33.4 | GI50 [7]: 196 nM |
